One assay deals with T1, cytochrome c1 (Bos taurus, UniProt P00125).
T1 construct: gene CYC1; native, in isolated heart mitochondria (complex III, inner membrane); about 27 kD on SDS-PAGE; printed peptides SDLELHPPSYPWSHR (1-15) and WAAEPEHDHRK (192-202)
T1 sequence (P00125 85-325): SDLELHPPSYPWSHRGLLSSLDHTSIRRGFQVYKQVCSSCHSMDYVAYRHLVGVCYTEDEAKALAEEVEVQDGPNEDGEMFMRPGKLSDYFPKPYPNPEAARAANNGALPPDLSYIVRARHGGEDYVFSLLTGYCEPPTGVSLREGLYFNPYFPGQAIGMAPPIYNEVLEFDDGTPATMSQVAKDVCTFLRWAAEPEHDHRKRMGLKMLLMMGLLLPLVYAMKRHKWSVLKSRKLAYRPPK
The assay is described as follows: tritium labelling of mitochondria, 1D and 2D-PAGE photofluorography, western blot, tryptic mass fingerprint. The assay is classed as binding. The following applies: covalent; labelled compound; 5 µM, 30 min, 25 °C, then chased with 1 mM cold litreol; Lys202 and N-terminal peptide proposed. In general terms: In western blotting, separated proteins are transferred to a membrane and probed.

Assay [1] deals with T2, complex III (cytochrome bc1) (Rattus norvegicus, UniProt P00159).
T2 construct: gene Mt-cyb; native complex III in liver mitochondria / submitochondrial particles; with Cytochrome c1, heme protein, mitochondrial; Cytochrome b-c1 complex subunit Rieske, mitochondrial
T2 sequence (P00159 whole entry): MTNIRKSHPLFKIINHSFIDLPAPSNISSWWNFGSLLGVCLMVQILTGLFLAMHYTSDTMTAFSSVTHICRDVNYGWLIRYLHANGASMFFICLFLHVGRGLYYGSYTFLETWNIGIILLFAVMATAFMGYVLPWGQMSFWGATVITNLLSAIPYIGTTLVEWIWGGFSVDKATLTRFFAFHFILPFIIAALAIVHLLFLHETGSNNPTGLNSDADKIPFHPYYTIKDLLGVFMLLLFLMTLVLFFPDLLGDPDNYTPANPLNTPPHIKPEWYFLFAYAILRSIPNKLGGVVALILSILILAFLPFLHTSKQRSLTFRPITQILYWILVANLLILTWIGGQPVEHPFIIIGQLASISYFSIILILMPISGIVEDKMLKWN
T2 sequence (D3ZFQ8 87-326 partner): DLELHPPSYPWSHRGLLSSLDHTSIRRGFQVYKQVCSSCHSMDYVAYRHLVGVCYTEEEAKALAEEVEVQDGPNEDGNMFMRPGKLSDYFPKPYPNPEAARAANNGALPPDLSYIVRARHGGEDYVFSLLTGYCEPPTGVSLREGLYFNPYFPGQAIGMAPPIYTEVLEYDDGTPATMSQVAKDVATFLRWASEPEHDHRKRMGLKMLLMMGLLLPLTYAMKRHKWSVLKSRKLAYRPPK
T2 sequence (P20788 79-274 partner): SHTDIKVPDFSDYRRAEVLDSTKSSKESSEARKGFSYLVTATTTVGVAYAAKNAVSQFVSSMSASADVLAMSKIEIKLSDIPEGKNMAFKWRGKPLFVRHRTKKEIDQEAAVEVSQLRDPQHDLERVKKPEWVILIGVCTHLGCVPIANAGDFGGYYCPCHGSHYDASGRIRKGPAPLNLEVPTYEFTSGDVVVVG
The assay is described as follows: duroquinol:cytochrome c reduction, Hanes-Woolf; cytochrome b redox spectrophotometry. The assay is classed as biochemical.

The structures appear in SMILES notation.

For the molecule `CCCCCCCCCCCCCCCc1cccc(O)c1O` [3H-litreol], the “tritium labelling of mitochondria, 1D and 2D-PAGE photofluorography, western blo” value on cytochrome c1 was “Litreol binds to an inner mitochondrial membrane protein from bovine heart mitochondria”.

As for `CCCC/C=C\CCCCCCCCCc1cccc(O)c1O` [litreol, 3-(10-Z-pentadecenyl)-catechol], the “duroquinol:cytochrome c reduction, Hanes-Woolf; cytochrome b redox spectrophotom” value in assay [1] (noncompetitive vs duroquinol and cytochrome c, 10 µM litreol, electron flow halted between bL and bH, pH 7.4) is listed as “Litreol is a noncompetitive inhibitor of complex III at the level of the cytochrome bc1”.

As for `Cc1c(C)c(O)c(C)c(C)c1O` [duroquinol], the “duroquinol:cytochrome c reduction, Hanes-Woolf; cytochrome b redox spectrophotom” value in assay [1] (electron donor, acceptor cytochrome c) was “The enzyme kinetics of complex III for Dur and cytochrome c were measured”.

The values above are taken from PMC8554850, “Allergens of the urushiol family promote mitochondrial dysfunction by inhibiting the electron transport at the level of cytochromes b and chemically modify cytochrome c1” (Biological Research, 2021).
